Assay results: patent US10757937B2, “Sulfonamides that activate ABA receptors” (The Regents of the University of California, priority 2014, dated 2020)
Read-outs that look alike come from different tables or passages of the source.

Legend:
[1] = tested on: Arabidopsis seed germination and hypocotyl growth; assay: Arabidopsis seed germination and hypocotyl growth; assay type: in vivo; settings: for minimal effective concentration: Arabidopsis thaliana
Summary of the method: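 Wild-type seeds germinated on ½× Murashige and Skoog medium with compound at 10 and 50 uM, or in a later series at 1, 5, 10, 25 and 50 uM. Reported value is the lowest tested concentration that inhibited germination or hypocotyl growth in wells where seeds germinated.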

PYL2 = target: T1, PYL2 (Arabidopsis thaliana, UniProt O80992); assay: receptor-mediated PP2C (HAB1) inhibition in vitro assay; assay type: biochemical; settings: for remaining activity at 50 µM: 50 uM of the test compound
T1 construct: 6X-His; made in house; host or cells: E. coli BL21[DE3]pLysS
T1 sequence (O80992 1-190): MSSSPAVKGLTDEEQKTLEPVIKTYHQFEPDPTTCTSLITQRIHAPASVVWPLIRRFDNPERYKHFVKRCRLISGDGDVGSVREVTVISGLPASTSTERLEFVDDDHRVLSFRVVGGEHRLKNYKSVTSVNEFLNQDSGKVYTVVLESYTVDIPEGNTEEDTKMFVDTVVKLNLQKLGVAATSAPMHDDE
T1 sequence (Q9CAJ0 23-511 partner): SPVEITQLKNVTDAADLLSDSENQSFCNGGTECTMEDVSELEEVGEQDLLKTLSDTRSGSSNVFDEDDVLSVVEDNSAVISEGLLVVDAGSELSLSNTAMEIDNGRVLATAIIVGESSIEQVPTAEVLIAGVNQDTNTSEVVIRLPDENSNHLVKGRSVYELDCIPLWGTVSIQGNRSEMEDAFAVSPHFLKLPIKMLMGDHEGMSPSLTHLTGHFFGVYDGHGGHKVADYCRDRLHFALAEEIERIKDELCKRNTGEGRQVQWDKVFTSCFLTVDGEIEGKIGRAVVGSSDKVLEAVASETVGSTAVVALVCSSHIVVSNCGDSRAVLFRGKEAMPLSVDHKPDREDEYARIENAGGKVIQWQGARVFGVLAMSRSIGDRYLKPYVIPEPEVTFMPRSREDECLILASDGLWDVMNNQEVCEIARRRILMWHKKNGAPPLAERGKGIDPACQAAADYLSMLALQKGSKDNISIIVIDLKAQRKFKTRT
Summary of the method: (§1)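 Fluorogenic readout: 4-methylumbelliferyl-phosphate hydrolysis by 50 nM GST-HAB1 plus 2:1 His-receptor; Tris-OAc pH 7.9, NaCl, 1 mM MnCl2, β-ME. Compounds at 25 μM or 50 uM single dose; IC50 from dose curves for selected compounds.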

PYL4 = target: T2, PYL4 (Arabidopsis thaliana, UniProt O80920); assay: as above; assay type: biochemical; settings: for remaining activity at 50 µM: 50 uM of the test compound
T2 construct: 6X-His; made in house; host or cells: E. coli BL21[DE3]pLysS
T2 sequence (O80920 1-207): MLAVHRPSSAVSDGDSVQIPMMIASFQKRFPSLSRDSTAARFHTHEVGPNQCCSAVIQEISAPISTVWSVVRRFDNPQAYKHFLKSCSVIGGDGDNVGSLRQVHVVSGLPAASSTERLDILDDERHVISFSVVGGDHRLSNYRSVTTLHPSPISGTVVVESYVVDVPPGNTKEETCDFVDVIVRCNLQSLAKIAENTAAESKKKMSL
T2 sequence (Q9CAJ0 23-511 partner): T1 sequence (Q9CAJ0 23-511 partner)
Summary of the method: as §1

PYR1 = target: T3, PYR1 (Arabidopsis thaliana, UniProt O49686); assay: as above; assay type: biochemical; settings: for remaining activity at 50 µM: 50 uM of the test compound
T3 construct: 6X-His; made in house; host or cells: E. coli BL21[DE3]pLysS
T3 sequence (O49686 1-191): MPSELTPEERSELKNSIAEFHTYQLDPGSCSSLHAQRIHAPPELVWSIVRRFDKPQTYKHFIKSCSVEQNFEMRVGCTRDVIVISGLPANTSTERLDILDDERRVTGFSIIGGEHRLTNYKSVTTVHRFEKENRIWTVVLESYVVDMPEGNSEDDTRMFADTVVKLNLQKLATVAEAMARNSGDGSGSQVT
T3 sequence (Q9CAJ0 23-511 partner): T1 sequence (Q9CAJ0 23-511 partner)
Summary of the method: as §1

[2] = Germination Effects III, tested at 1, 5, 10, 25 and 50 uM, lowest concentration inhibiting hypocotyl growth, — = none, read-out: Growth Inhibition
[3] = Germination Effects III, tested at 1, 5, 10, 25 and 50 uM, lowest inhibiting concentration, — = none, read-out: Germination Inhibition
[4] = Table XII-B, calculated from dose curves, read-out: PP2C Activity (IC50 in uM) PYL2
[5] = Table XII-B, calculated from dose curves, read-out: PP2C Activity (IC50 in uM) PYL4
[6] = Table XII-B, calculated from dose curves, read-out: PP2C Activity (IC50 in uM) PYR1

| Structure (SMILES) | minimal effective concentration [1, 2] | minimal effective concentration [1, 3] | remaining activity at 50 µM (PYL2) | IC50 (PYL2; [4]) | remaining activity at 50 µM (PYL4) | IC50 (PYL4; [5]) | remaining activity at 50 µM (PYR1) | IC50 (PYR1; [6]) | minimal effective concentration ([1]; Table VIII, tested at 10 or 50 μM, ABA at 1 μM, lowest inhibiting concentration, − = none, read-out: Germination Inhibition) | Germination Inhibition ([1]; Germination Inhibition II, tested at 10 and 50 uM, lowest of the two concentrations that inhibited, − = none) | IC50 (PYL2; Table VII, read-out: PP2C Dose Curves PYL2 (IC50)) | IC50 (PYL4; Table VII, read-out: PP2C Dose Curves PYL4 (IC50)) | remaining activity at 25 µM (PYL4; compound at 25 μM, control without agonist = 100%) | IC50 (PYR1; Table VII, read-out: PP2C Dose Curves PYR1 (IC50)) |
| --- | --- | --- | --- | --- | --- | --- | --- | --- | --- | --- | --- | --- | --- | --- |
| N#Cc1ccc(CS(=O)(=O)NC(=O)C2(c3ccsc3)CCCCC2)cc1Br [Compound 106, N-[(4-Cyano-3-bromophenyl)methanesulfonyl]-1-(thiophen-3-yl)cyclohexane-1-carboxamide] | 1 µM | 1 µM | 29.6% | 33 µM | 89.2% | > 50 µM | 98.9% | > 50 µM |  |  |  |  |  |  |
| CC1(C)CCC(C(=O)NS(=O)(=O)Cc2ccc(C#N)cc2)(c2ccc(F)cc2)CC1 [Compound 68, N-[(4-Cyanophenyl)methanesulfonyl]-1-(4-fluorophenyl)-4,4-dimethylcyclohexane-1-carboxamide] | 10 µM | 25 µM | 94.8% | > 50 µM | 94% | > 50 µM | 94.4% | > 50 µM |  |  |  |  |  |  |
| N#Cc1ccc(CS(=O)(=O)NC(=O)C2(c3ccsc3)CCCCC2)cc1 [Compound 78, N-[(4-Cyanophenyl)methanesulfonyl]-1-(thiophen-3-yl)cyclohexane-1-carboxamide] | 2.5 µM | 2.5 µM | 81.2% | > 50 µM | 102% | > 50 µM | 90.9% | > 50 µM |  |  |  |  |  |  |
| CCC(CC)(C(=O)NS(=O)(=O)Cc1ccc([N+](=O)[O-])cc1)c1ccccc1 [Compound 19] |  |  |  |  |  |  |  |  | 10 µM | 10 µM | > 50 µM | > 50 µM | 86% | > 50 µM |
| N#Cc1ccc(CS(=O)(=O)NC(=O)C2(c3ccccc3)CCCCC2)cc1 [Compound 69, N-[(4-Cyanophenyl)methanesulfonyl]-1-phenylcyclohexane-1-carboxamide] | 1 µM | 5 µM | 96.2% | > 50 µM | 95% | > 50 µM | 96% | > 50 µM |  |  |  |  |  |  |
| N#Cc1ccc(CS(=O)(=O)NC(=O)C2(c3cccs3)CCCCC2)cc1 [Compound 75, N-[(4-Cyanophenyl)methanesulfonyl]-1-(thiophen-2-yl)cyclohexane-1-carboxamide] | 5 µM | 5 µM | 89.5% | > 50 µM | 98% | > 50 µM | 96.1% | > 50 µM |  |  |  |  |  |  |
| CC1CCC(C(=O)NS(=O)(=O)Cc2ccc(C#N)cc2)(c2ccc(F)cc2)CC1 (stereo not shown) [Compound 67, N-[(4-Cyanophenyl)methanesulfonyl]-1-(4-fluorophenyl)-4-methylcyclohexane-1-carboxamide] | 10 µM | 25 µM | 93% | > 50 µM | 91.9% | > 50 µM | 99.6% | > 50 µM |  |  |  |  |  |  |
| CC(C)COC(=O)NS(=O)(=O)Cc1ccc(C#N)cc1 [Compound 65, 2-Methylpropyl N-[(4-cyanophenyl)methanesulfonyl]carbamate] | 50 µM |  | 95.2% | > 50 µM | 95.5% | > 50 µM | 96.2% | > 50 µM |  |  |  |  |  |  |
